Read-outs that look alike come from different tables or passages of the source. Bounds are passed on as bounds.

The experiment has as its target recombinant eIF4E (Homo sapiens (Human), UniProt P06730). As to the kind of experiment: Fluorescence polarization competition assay for eIF4E binding potency. In outline: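 Competitive displacement format: compounds compete with a fluorescent m7GDP tracer (20 nM) for 75 nM recombinant eIF4E. Incubation is 30 min at room temperature, protected from light, with 1% DMSO. Polarization read gives IC50 over eight 3-fold concentrations.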
Background: Fluorescence polarisation rises when a labelled molecule tumbles more slowly, as on binding a larger partner.

[1] abbreviates: fluorescence polarization competition, 75 nM recombinant eIF4E, 20 nM EDA-m7GDP-ATTO-550, IC50 class, read-out: elF4E FP.
The mark [2] stands for this setting: inhibition of eIF4E/EDA-m7GDP-ATTO-550 binding by 50%, Table 4B calculated values, read-out: IC50.
Setting [3] is: inhibition of eIF4E/EDA-m7GDP-ATTO-550 binding, calculated IC50 values, Table 4B, read-out: IC50.

recombinant eIF4E, sequence (P06730 whole entry): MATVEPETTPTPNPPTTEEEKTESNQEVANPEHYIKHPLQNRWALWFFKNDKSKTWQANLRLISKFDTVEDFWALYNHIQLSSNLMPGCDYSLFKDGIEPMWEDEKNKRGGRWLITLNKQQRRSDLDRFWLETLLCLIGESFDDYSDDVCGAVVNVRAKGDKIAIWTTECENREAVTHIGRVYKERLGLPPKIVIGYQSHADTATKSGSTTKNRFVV

On to `Cc1nc2ccc(OC(F)F)c(C#N)c2c(=O)n1CCOc1ccc(Cl)cc1-c1ccnc2c(C(=O)O)csc12` [compound 236], for which the IC50 reads like this: under setting [1], less than 50 nM; under setting [2], 20.3 nM.
Turning to `C#Cc1cc(C#N)c2c(=O)n(CCOc3ccc(Cl)cc3-c3ccnc4c(C(=O)O)csc34)c(C)nc2c1` [compound 213], the IC50 under setting [1] is less than 50 nM and the IC50 under setting [2] was 35.6 nM.
As for `Cc1nc(N2CCN(CCF)CC2)c(C#N)c2c(=O)n(CCOc3ccc(Cl)cc3-c3ccnc4c(C(=O)O)csc34)c(C)nc12` [compound 1624], the IC50 under setting [3] was 4.17 nM.
The same measure, in the same setting: under `Cc1nc2cnc(N(C)C3CCN(C4CC(F)(F)C4)CC3)c(C#N)c2c(=O)n1CC#Cc1ccc(Cl)cc1-c1ccnc2c(C(=O)NS(=O)(=O)Cc3ccccn3)csc12` [compound 1832] stands 20.5 nM.
Regarding `Cc1cc(-c2cc(Cl)ccc2OCCn2c(C)nc3c(F)cc(CCN(C)C)c(C#N)c3c2=O)c2scc(C(=O)O)c2n1` [compound 608], the IC50 by setting is: under setting [1], less than 50 nM; under setting [2], 18.6 nM.
For the compound `Cc1nc2cc(C(C)(F)F)cc(C#N)c2c(=O)n1CCOc1ccc(Cl)cc1-c1ccnc2c(C(=O)O)csc12` [compound 217], the IC50 runs as follows: under setting [1], 50 to 1000 nM; under setting [2], 55.4 nM.
On to `Cc1cc(-c2cc(Cl)ccc2OCCn2c(C)nc3cc(N4C[C@@H](C)N(C)[C@@H](C)C4)c(F)c(C#N)c3c2=O)c2sc(C)c(C(=O)O)c2n1` [1090b], for which, under setting [2], the IC50 is 503 nM.
Consider `Cc1cc(-c2nc3c(=O)n(CCOc4ccc(Cl)cc4-c4cc(C)nc5c(C(=O)O)csc45)c(C)nc3cc2C(F)(F)F)ccn1` [compound 463], for which the IC50 under setting [1] was less than 50 nM and the IC50 under setting [2] is 8.86 nM.
With `Cc1nc2cnc(N3CCN(C4COC4)CC3)c(C#N)c2c(=O)n1CC#Cc1ccc(Cl)cc1-c1ccnc2c(C(=O)O)csc12` [compound 1321], under setting [3], the IC50 is 60.2 nM.
Consider `Cc1nc2cc(C(F)(F)F)c(OCCN3CCNCC3)c(C#N)c2c(=O)n1CCOc1ccc(Cl)cc1-c1ccnc2ccsc12` [compound 853], for which the IC50 is less than 50 nM under setting [1] and 31.9 nM under setting [2].
As to `Cc1nc2cnc(N(C)C3CCN(CC(F)(F)F)CC3)c(C#N)c2c(=O)n1CC#Cc1ccc(Cl)cc1-c1ccnc2c(C(=O)NS(=O)(=O)c3ccc(F)cc3F)csc12` [compound 1550], the IC50 under setting [3] was 22.9 nM.
On the same count and under the same terms, the value for `Cc1nc2cnc(N(C)C3CCN(C(CF)CF)CC3)c(C#N)c2c(=O)n1CCOc1ccc(Cl)cc1-c1ccnc2c(C(=O)O)csc12` [compound 1432] was 21.2 nM; that for `Cc1nc2cnc(N3CCN(C)C(C(F)(F)F)C3)c(C#N)c2c(=O)n1CCOc1ccc(Cl)cc1-c1ccnc2c(C(=O)O)csc12` (stereo not shown) [compound 1334] was 51.3 nM.
For `Cc1c(C#N)c2cc(C(F)(F)F)cc(C#N)c2c(=O)n1CCOc1ccc(Cl)cc1-c1ccnc2c(C(=O)O)csc12` [compound 263], the IC50 under setting [1] was less than 50 nM.
In the case of `Cc1nc2c(F)c(CN(C)C)c(C(F)F)c(C#N)c2c(=O)n1CCOc1ccc(Cl)cc1-c1ccnc2c(C(=O)O)csc12` [compound 518], the IC50 runs as follows: under setting [1], less than 50 nM; under setting [2], 16.4 nM.
For `Cc1cc(-c2cc(Cl)ccc2OCCn2c(C)nc3cc(C(F)(F)F)c(OC4CC4)c(C#N)c3c2=O)c2scc(C(=O)O)c2n1` [compound 1034] the same measures were less than 50 nM and 37.9 nM.
`Cc1nc2cnc(N3CCN(C(C)(C)C(F)F)CC3)c(C#N)c2c(=O)n1CCOc1ccc(Cl)cc1-c1ccnc2c(C(=O)O)csc12` [compound 1309]: the IC50 under setting [3] was 37.2 nM.
As to `Cc1c(F)c2cc(C(F)(F)F)cc(C#N)c2c(=O)n1CCOc1ccc(Cl)cc1-c1ccnc2c(C(=O)O)csc12` [compound 262], the IC50 under setting [1] was less than 50 nM.
Same read-out and setting: the value for `CCc1cc(-c2cc(Cl)ccc2OCCn2c(C)nc3cc(CN(C)C)c(OC(F)F)c(C#N)c3c2=O)c2scc(C(=O)O)c2n1` [compound 639] was less than 50 nM.
Consider `Cc1cc(-c2cc(Cl)ccc2OCCn2c(C)nc3c(C#N)nc(C4CC4)c(C)c3c2=O)c2scc(C(=O)O)c2n1` [compound 1964], for which the IC50 under setting [3] was 49.8 nM.
For the compound `Cc1nc2cnc(N(C)C3CCN(C4CC(F)C4)CC3)c(C#N)c2c(=O)n1CC#Cc1ccc(Cl)cc1-c1ccnc2c(C(=O)O)csc12` (stereo not shown) [compound 1181], the IC50 runs as follows: under setting [1], less than 50 nM; under setting [2], 13.7 nM.
For `Cc1nc2cc(F)c(C(F)F)c(C#N)c2c(=O)n1CCOc1ccc(Cl)cc1-c1ccnc2c(C(=O)O)csc12` [compound 230] the same measures were less than 50 nM and 14.9 nM.
For `Cc1cc(-c2cc(Cl)ccc2OCCn2c(C)nc3c(F)cc(C(F)F)c(C#N)c3c2=O)c2scc(C(=O)NC(=O)N(C)C)c2n1` [compound 594], the IC50 is greater than 1000 nM under setting [1] and 1350 nM under setting [2].
With `Cc1cc(-c2cc(Cl)ccc2OCCn2c(=O)c3c(C#N)cc(C(F)(F)F)cc3n(C)c2=O)c2scc(C(=O)O)c2n1` [compound 1975], under setting [3], the IC50 was 109 nM.
For the compound `Cc1cc(-c2cc(Cl)ccc2OCCn2c(C)nc3cc(C(F)(F)F)c(-c4cc(C)n(C)n4)c(C#N)c3c2=O)c2scc(C(=O)O)c2n1` [compound 1029], the IC50 by setting is: under setting [1], less than 50 nM; under setting [2], 7.66 nM.
In the case of `Cc1nc2cnc(N3CCC(N4CC(OC(F)F)C4)CC3)c(C#N)c2c(=O)n1CC#Cc1ccc(Cl)cc1-c1ccnc2c(C(=O)O)csc12` [compound 1187], the IC50 under setting [1] is less than 50 nM.
For the compound `Cc1nc2cnc(N(C)C3CCN([C@H]4C[C@H](OC(F)F)C4)CC3)c(C#N)c2c(=O)n1CC#Cc1ccc(Cl)cc1-c1ccnc2c(C(=O)O)csc12` [compound 1135], the IC50 reads like this: under setting [1], less than 50 nM; under setting [2], 34.3 nM.
For `Cc1nc2cnc(N(C)C3CCN(C4CC(F)(F)C4)CC3)c(C#N)c2c(=O)n1CC#Cc1ccc(Cl)cc1-c1ccnc2c(C(=O)NS(C)(=O)=O)csc12` [compound 1108] the same measures were less than 50 nM and 29.1 nM.
For `Cc1nc2ccc(S(=O)(=O)N3CCCC3)c(C#N)c2c(=O)n1CCOc1ccc(Cl)cc1-c1ccnc2c(C(=O)O)csc12` [compound 249] the same measures were less than 50 nM and 19.8 nM.
As to `Cc1cc(-c2cc(Cl)ccc2OCCn2c(C)nc3cc(C(F)(F)F)c(CN4CCSCC4)c(C#N)c3c2=O)c2scc(C(=O)O)c2n1` [compound 1376], the IC50 under setting [3] was 13.6 nM.
Consider `O=C(O)c1cccc(-c2cc(Cl)ccc2OCCn2nnc3ccccc3c2=O)c1` [compound 1991], for which, under setting [3], the IC50 was greater than 300000 nM.
Still for that read-out and setting: the value for `Cc1nc2cnc(N3CC4(C3)CN(C3CC3(C)C)C4)c(C#N)c2c(=O)n1CCOc1ccc(Cl)cc1-c1ccnc2c(C(=O)O)csc12` (stereo not shown) [compound 1436] was 29.5 nM.
For `Cc1nc2cnc(N(C)C3CCN(CCC(C)(F)F)CC3)c(C#N)c2c(=O)n1CC#Cc1ccc(Cl)cc1-c1ccnc2c(C(=O)O)csc12` [compound 1190], the IC50 under setting [1] was less than 50 nM and the IC50 under setting [3] is 7.3 nM.
Regarding `Cc1nc2cnc(N(C)C3CCN([C@H]4C[C@@H](OC(F)F)C4)CC3)c(C#N)c2c(=O)n1CC#Cc1ccc(Cl)cc1-c1ccnc2c(C(=O)O)csc12` [compound 1172], the IC50 under setting [1] is less than 50 nM and the IC50 under setting [2] is 14.2 nM.
`Cc1nc2cnc(N3CC4(C3)CN(C3COC3)C4)c(C#N)c2c(=O)n1CC#Cc1ccc(Cl)cc1-c1ccnc2c(C(=O)O)csc12` [compound 1322]: the IC50 under setting [3] is 11.2 nM.
On the same count and under the same terms, the value for `O=C(O)c1cccc(-c2cc(Cl)ccc2OCCn2c(C(F)F)nc3cccc(Br)c3c2=O)c1` [compound 2009] was 2150 nM; that for `Cc1nc2cnc(/C=C/CN(C)CC(F)(F)F)c(C#N)c2c(=O)n1CCOc1ccc(Cl)cc1-c1ccnc2c(C(=O)O)csc12` [compound 1898] was 61.3 nM.
On to `N#Cc1cccc2nc(C(F)F)n(CCOc3ccc(Cl)cc3-c3nccc4c(C(=O)O)csc34)c(=O)c12` [compound 189], for which the IC50 under setting [1] is greater than 1000 nM and the IC50 under setting [2] is 1570 nM.
For `Cc1cc(-c2cc(Cl)ccc2OCCn2c(C)nc3cnc(Oc4ccccc4)c(C#N)c3c2=O)c2scc(C(=O)O)c2n1` [compound 1038] the same measures were less than 50 nM and 38.9 nM.
For `O=C(O)c1cccc(-c2cc(Cl)ccc2OCCn2cnc3c(F)cccc3c2=O)c1` [compound 76] the same measures were greater than 1000 nM and 2300 nM.
As to `Cc1cc(-c2cc(Cl)ccc2OCCn2c(C)nc3cnc(N4CC(OCC(F)(F)F)C4)c(C#N)c3c2=O)c2scc(C(=O)O)c2n1` [compound 1044], the IC50 reads like this: under setting [1], less than 50 nM; under setting [2], 5.31 nM.
For `Cc1nc2c(OC(F)(F)F)ccc(C#N)c2c(=O)n1CCOc1ccc(Cl)cc1-c1ccnc2c(C(=O)O)csc12` [compound 313] the same measures were less than 50 nM and 34.5 nM.
Regarding `Cc1nc2cnc(N3CCN(C(C)(C)CC#N)CC3)c(C#N)c2c(=O)n1CC#Cc1ccc(Cl)cc1-c1ccnc2c(C(=O)O)csc12` [compound 1367], the IC50 under setting [3] was 14.9 nM.
`Cc1nc2cnc(C3=CCNCC3)c(C#N)c2c(=O)n1CCOc1ccc(Cl)cc1-c1ccnc2c(C(=O)O)csc12` [compound 1626]: the IC50 under setting [3] was 30.3 nM.
With `Cc1nc2cc(F)c(S(=O)(=O)N(C)C)c(C#N)c2c(=O)n1CCOc1ccc(Cl)cc1-c1ccnc2c(C(=O)O)csc12` [compound 281], the IC50 reads like this: under setting [1], less than 50 nM; under setting [2], 37.5 nM.
On to `CCc1ncc2nc(C)n(CCOc3ccc(Cl)cc3-c3cc(C)nc4c(C(=O)O)csc34)c(=O)c2c1C#N` [compound 923], for which the IC50 was less than 50 nM under setting [1] and 3.71 nM under setting [2].
For `Cc1nc2cnc(N3CCN(CCCC(F)(F)F)CC3)c(C#N)c2c(=O)n1CCOc1ccc(Cl)cc1-c1ccnc2c(C(=O)O)csc12` [compound 844] the same measures were less than 50 nM and 23.3 nM.
`Cc1nc2cnc(N3CCC(N(CC(F)F)C4COC4)CC3)c(C#N)c2c(=O)n1CC#Cc1ccc(Cl)cc1-c1ccnc2c(C(=O)O)csc12` [compound 1553]: the IC50 under setting [3] is 12.9 nM.

Values taken from US11286268B1, “EIF4E-inhibiting compounds and methods” (EFFECTOR THERAPEUTICS, INC., priority 2019, dated 2022).
